ChEMBL document CHEMBL1126478, “The syntheses and binding affinities of tools for the study of angiotensin AT2 receptors” (Bioorg Med Chem Lett, 1993)
pIC50: −log10 of the molar value. Calls of active or inactive are those of the source.

What was measured:
[1] = biological target: T1, Type-2 angiotensin II receptor (Homo sapiens, UniProt P50052); experiment: The compound was evaluated for the inhibition of binding of [125I]-CGP 42112A to AT2 receptor
T1 sequence (P50052 whole entry): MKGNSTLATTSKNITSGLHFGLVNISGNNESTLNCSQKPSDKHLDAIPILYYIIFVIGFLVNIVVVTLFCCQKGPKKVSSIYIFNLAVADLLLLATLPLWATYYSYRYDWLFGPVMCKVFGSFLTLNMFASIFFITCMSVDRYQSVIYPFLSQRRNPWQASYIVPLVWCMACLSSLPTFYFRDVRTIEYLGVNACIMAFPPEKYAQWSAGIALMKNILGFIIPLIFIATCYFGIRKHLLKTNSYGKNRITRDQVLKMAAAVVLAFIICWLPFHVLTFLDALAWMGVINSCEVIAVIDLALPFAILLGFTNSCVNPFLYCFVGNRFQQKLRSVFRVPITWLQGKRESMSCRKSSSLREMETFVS

[2] = biological target: T2, Type-1 angiotensin II receptor (Homo sapiens) (UniProt P30556); experiment: The compound was evaluated for the inhibition of binding of [3H]-DUP 753 to AT1 receptor at 0.1 uM; not active (</= 10% Inhibition)
T2 sequence (whole entry): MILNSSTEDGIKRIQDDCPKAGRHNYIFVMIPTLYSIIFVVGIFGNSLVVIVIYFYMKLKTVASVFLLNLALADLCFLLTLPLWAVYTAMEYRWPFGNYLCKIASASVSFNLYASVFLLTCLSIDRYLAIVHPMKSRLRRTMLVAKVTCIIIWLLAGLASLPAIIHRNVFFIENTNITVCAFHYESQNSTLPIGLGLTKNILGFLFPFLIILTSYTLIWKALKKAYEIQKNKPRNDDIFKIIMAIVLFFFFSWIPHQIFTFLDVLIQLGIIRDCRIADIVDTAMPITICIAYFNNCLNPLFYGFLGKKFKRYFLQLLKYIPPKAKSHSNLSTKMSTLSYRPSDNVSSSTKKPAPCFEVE

[3] = biological target: T2, Type-1 angiotensin II receptor (Homo sapiens); experiment: The compound was evaluated for the inhibition of binding of [3H]-DUP 753 to AT1 receptor at 1 uM; not active (</= 10% Inhibition)

pIC50 [1] | inhibition [2] | inhibition [3] | SMILES
8.29 | inactive | – | Cc1cc(Cn2cnc3c2C[C@@H](C(=O)O)N(C(=O)C(c2ccccc2)c2ccccc2)C3)cc(I)c1O
– | inactive | – | Cc1cc(Cn2cnc3c2C[C@@H](C(=O)O)N(C(=O)C(c2ccccc2)c2ccccc2)C3)ccc1N(C)C
8.15 | inactive | – | Cc1cc(Cn2cnc3c2C[C@@H](C(=O)O)N(C(=O)C(c2ccccc2)c2ccccc2)C3)ccc1NCCCCCCNC(=O)[C@@H](N)CCCCNC(=O)CCCC[C@@H]1SC[C@@H]2NC(=O)N[C@@H]21
8.44 | – | inactive | Cc1cc(Cn2cnc3c2C[C@@H](C(=O)O)N(C(=O)C(c2ccccc2)c2ccccc2)C3)ccc1NCCCCCCNC(=O)CCNc1ccc([N+](=O)[O-])c2nonc12
